Species: Rattus norvegicus
Assay: Open TG-GATES - Regimen: Daily Repeat
Format: toxicity, organism-based, Sprague-Dawley
Design: regimen Daily Repeat, gender Male, age 6 weeks
Details: in vivo, po, route gavage; for APTT / Bas / Eos / Fbg / Hb / Ht / Lym / MCHC / MCV / Mono / Neu / PT / Plat / RBC / Ret / WBC / MCH: tissue Blood; for KIDNEY_L / KIDNEY_R / KIDNEY_TOTAL: tissue Kidney; for LIVER: tissue Liver; for ALP / ALT / AST / BUN / CRE / Ca / DBIL / GLC / K / LDH / Na / PL / RALB / TBIL / TC / TG / TP / gamma-GTP: tissue Plasma
[1] = 0 mg/kg, 72 h, dose level Control, time 3 day
[2] = 0 mg/kg, […], dose level Control, time 7 day
[3] = 0 mg/kg, […], dose level Control, time 14 day
[4] = 0 mg/kg, […], dose level Control, time 28 day
[5] = 20 mg/kg, 72 h, dose level Low, time 3 day
[6] = 20 mg/kg, […], dose level Low, time 7 day
[7] = 20 mg/kg, […], dose level Low, time 14 day
[8] = 20 mg/kg, […], dose level Low, time 28 day

CCCCc1oc2ccccc2c1C(=O)c1cc(I)c(OCCN(CC)CC)c(I)c1 [AMIODARONE]
TERMINAL_BW [1]: 226.9 g | APTT [1]: 18.2 s | Bas [1]: 0% | Eos [1]: 0.8% | Fbg [1]: 229 mg/dL | Hb [1]: 13.5 g/dL | Ht [1]: 39.6% | Lym [1]: 74.8% | MCHC [1]: 34.1% | MCV [1]: 62.7 fL | Mono [1]: 3% | Neu [1]: 20.4% | PT [1]: 12.3 s | Plat [1]: 122.3 x10_4/uL | RBC [1]: 631.4 x10_4/ul | Ret [1]: 6.4% | WBC [1]: 91.2 x10_2/uL | KIDNEY_L [1]: 1 g | KIDNEY_R [1]: 1 g | KIDNEY_TOTAL [1]: 2 g | LIVER [1]: 11.2 g | ALP [1]: 985.8 IU/L | ALT [1]: 37.8 IU/L | AST [1]: 72.6 IU/L | BUN [1]: 16.2 mg/dL | CRE [1]: 0.4 mg/dL | Ca [1]: 10.9 mg/dL | DBIL [1]: 0.096 mg/dL | GLC [1]: 207.4 mg/dL | K [1]: 3.9 meq/L | LDH [1]: 213 IU/L | Na [1]: 140.6 meq/L | PL [1]: 162.4 mg/dL | RALB [1]: 3.5 g/dL | TBIL [1]: 0.1 mg/dL | TC [1]: 77.6 mg/dL | TG [1]: 113.2 mg/dL | TP [1]: 5.8 g/dL | gamma-GTP [1]: 1 IU/L | TERMINAL_BW [2]: 253.9 g | TERMINAL_BW [3]: 312.1 g | TERMINAL_BW [4]: 382 g | APTT [2]: 19.5 s | Bas [2]: 0% | Eos [2]: 1% | Fbg [2]: 218.2 mg/dL | Hb [2]: 13.6 g/dL | Ht [2]: 39.8% | Lym [2]: 78.4% | MCH [2]: 21.2 pg | MCV [2]: 61.9 fL | Mono [2]: 2.4% | Neu [2]: 17% | PT [2]: 12 s | Plat [2]: 117.4 x10_4/uL | RBC [2]: 642.8 x10_4/ul | Ret [2]: 5.1% | WBC [2]: 102.5 x10_2/uL | APTT [3]: 19.9 s | Bas [3]: 0% | Eos [3]: 0.8% | Fbg [3]: 231.8 mg/dL | Hb [3]: 14.4 g/dL | Ht [3]: 41.2% | Lym [3]: 81.4% | MCH [3]: 20.9 pg | MCHC [3]: 34.8% | MCV [3]: 59.9 fL | Mono [3]: 2.8% | Neu [3]: 13.8% | Plat [3]: 128.6 x10_4/uL | RBC [3]: 689.2 x10_4/ul | Ret [3]: 4.6% | WBC [3]: 85.2 x10_2/uL | APTT [4]: 21.2 s | Bas [4]: 0% | Eos [4]: 1% | Fbg [4]: 224.6 mg/dL | Hb [4]: 15.5 g/dL | Ht [4]: 43.9% | Lym [4]: 78.4% | MCH [4]: 19.9 pg | MCHC [4]: 35.4% | MCV [4]: 56.3 fL | Mono [4]: 2.4% | Neu [4]: 17.2% | PT [4]: 12.4 s | Plat [4]: 111.1 x10_4/uL | RBC [4]: 779.2 x10_4/ul | Ret [4]: 2.6% | WBC [4]: 92.4 x10_2/uL | KIDNEY_L [2]: 1.1 g | KIDNEY_R [2]: 1.1 g | KIDNEY_TOTAL [2]: 2.2 g | KIDNEY_L [3]: 1.2 g | KIDNEY_R [3]: 1.2 g | KIDNEY_TOTAL [3]: 2.5 g | KIDNEY_L [4]: 1.4 g | KIDNEY_R [4]: 1.3 g | KIDNEY_TOTAL [4]: 2.7 g | LIVER [2]: 12.1 g | LIVER [3]: 14.6 g | LIVER [4]: 15 g | ALP [2]: 963.6 IU/L | ALT [2]: 34 IU/L | AST [2]: 62.6 IU/L | BUN [2]: 16.6 mg/dL | CRE [2]: 0.4 mg/dL | Ca [2]: 10.6 mg/dL | DBIL [2]: 0.1 mg/dL | GLC [2]: 209.6 mg/dL | K [2]: 3.8 meq/L | LDH [2]: 179.6 IU/L | Na [2]: 140.4 meq/L | PL [2]: 158.4 mg/dL | RALB [2]: 3.4 g/dL | TBIL [2]: 0.2 mg/dL | TC [2]: 73.6 mg/dL | TG [2]: 116.6 mg/dL | TP [2]: 5.6 g/dL | gamma-GTP [2]: 1.6 IU/L | ALP [3]: 896.2 IU/L | ALT [3]: 40.6 IU/L | AST [3]: 70.8 IU/L | BUN [3]: 16.6 mg/dL | CRE [3]: 0.5 mg/dL | Ca [3]: 10.7 mg/dL | DBIL [3]: 0.09 mg/dL | GLC [3]: 233.8 mg/dL | K [3]: 3.5 meq/L | LDH [3]: 206.4 IU/L | Na [3]: 140.2 meq/L | PL [3]: 160.8 mg/dL | RALB [3]: 3.5 g/dL | TBIL [3]: 0.2 mg/dL | TG [3]: 117 mg/dL | TP [3]: 6 g/dL | gamma-GTP [3]: 1 IU/L | ALP [4]: 614.8 IU/L | ALT [4]: 37.6 IU/L | AST [4]: 61.6 IU/L | BUN [4]: 17.4 mg/dL | CRE [4]: 0.4 mg/dL | Ca [4]: 10.4 mg/dL | DBIL [4]: 0.1 mg/dL | GLC [4]: 214.4 mg/dL | K [4]: 3.7 meq/L | LDH [4]: 158.6 IU/L | Na [4]: 140.2 meq/L | PL [4]: 151 mg/dL | RALB [4]: 3.4 g/dL | TBIL [4]: 0.2 mg/dL | TC [4]: 67 mg/dL | TG [4]: 152.4 mg/dL | TP [4]: 6 g/dL | gamma-GTP [4]: 1 IU/L | TERMINAL_BW [5]: 226.2 g | Bas [5]: 0% | Eos [5]: 0.8% | Fbg [5]: 227.8 mg/dL | Hb [5]: 13.5 g/dL | Ht [5]: 39% | Lym [5]: 78.2% | MCH [5]: 22.1 pg | MCV [5]: 63.9 fL | Mono [5]: 3% | Neu [5]: 16.6% | PT [5]: 12.8 s | Plat [5]: 125.2 x10_4/uL | RBC [5]: 610.8 x10_4/ul | Ret [5]: 6.1% | WBC [5]: 101.8 x10_2/uL | KIDNEY_L [5]: 1 g | KIDNEY_R [5]: 1 g | KIDNEY_TOTAL [5]: 2.1 g | LIVER [5]: 11 g | ALP [5]: 1159.8 IU/L | ALT [5]: 38.8 IU/L | AST [5]: 71 IU/L | BUN [5]: 17 mg/dL | CRE [5]: 0.4 mg/dL | Ca [5]: 10.7 mg/dL | DBIL [5]: 0.088 mg/dL | GLC [5]: 200 mg/dL | K [5]: 3.8 meq/L | LDH [5]: 215.2 IU/L | Na [5]: 140.4 meq/L | PL [5]: 144.2 mg/dL | RALB [5]: 3.4 g/dL | TBIL [5]: 0.1 mg/dL | TC [5]: 72.8 mg/dL | TG [5]: 88.8 mg/dL | TP [5]: 5.7 g/dL | gamma-GTP [5]: 1.6 IU/L | TERMINAL_BW [6]: 267.4 g | TERMINAL_BW [7]: 322 g | TERMINAL_BW [8]: 379.8 g | APTT [6]: 18.5 s | Bas [6]: 0% | Eos [6]: 0.8% | Fbg [6]: 222 mg/dL | Ht [6]: 39.1% | Lym [6]: 79.6% | MCH [6]: 21.1 pg | MCHC [6]: 34.1% | MCV [6]: 62 fL | Mono [6]: 2.8% | Neu [6]: 15.6% | Plat [6]: 126.6 x10_4/uL | RBC [6]: 630 x10_4/ul | Ret [6]: 6.1% | WBC [6]: 117.1 x10_2/uL | APTT [7]: 19.7 s | Bas [7]: 0% | Eos [7]: 1% | Fbg [7]: 216.8 mg/dL | Hb [7]: 14.2 g/dL | Ht [7]: 41.2% | Lym [7]: 79.6% | MCH [7]: 20.4 pg | MCV [7]: 59.2 fL | Mono [7]: 2.8% | Neu [7]: 15.6% | PT [7]: 12.8 s | Plat [7]: 116.8 x10_4/uL | RBC [7]: 696.4 x10_4/ul | Ret [7]: 4.6% | WBC [7]: 84.5 x10_2/uL | APTT [8]: 19.6 s | Bas [8]: 0% | Eos [8]: 1.2% | Fbg [8]: 221.6 mg/dL | Ht [8]: 43.5% | Lym [8]: 78.2% | MCH [8]: 19.6 pg | MCHC [8]: 35.1% | MCV [8]: 56 fL | Mono [8]: 2.8% | Neu [8]: 16.6% | PT [8]: 12.3 s | Plat [8]: 109.6 x10_4/uL | RBC [8]: 777.2 x10_4/ul | Ret [8]: 2.7% | WBC [8]: 117.6 x10_2/uL | KIDNEY_L [6]: 1.1 g | KIDNEY_R [6]: 1.1 g | KIDNEY_TOTAL [6]: 2.2 g | KIDNEY_L [7]: 1.3 g | KIDNEY_R [7]: 1.3 g | KIDNEY_TOTAL [7]: 2.5 g | KIDNEY_L [8]: 1.3 g | KIDNEY_R [8]: 1.3 g | KIDNEY_TOTAL [8]: 2.6 g | LIVER [6]: 12.7 g | LIVER [7]: 14.6 g | LIVER [8]: 15.5 g | ALP [6]: 1065 IU/L | ALT [6]: 33 IU/L | AST [6]: 61.8 IU/L | CRE [6]: 0.4 mg/dL | Ca [6]: 10.7 mg/dL | DBIL [6]: 0.1 mg/dL | GLC [6]: 216.6 mg/dL | K [6]: 3.8 meq/L | LDH [6]: 197.4 IU/L | Na [6]: 140.6 meq/L | RALB [6]: 3.3 g/dL | TBIL [6]: 0.2 mg/dL | TC [6]: 70.8 mg/dL | TG [6]: 89.4 mg/dL | TP [6]: 5.5 g/dL | gamma-GTP [6]: 1.2 IU/L | ALP [7]: 861.4 IU/L | ALT [7]: 38 IU/L | AST [7]: 63.6 IU/L | BUN [7]: 17.4 mg/dL | CRE [7]: 0.4 mg/dL | Ca [7]: 10.5 mg/dL | DBIL [7]: 0.1 mg/dL | GLC [7]: 220.6 mg/dL | K [7]: 4 meq/L | LDH [7]: 196.2 IU/L | Na [7]: 139.6 meq/L | PL [7]: 161.6 mg/dL | RALB [7]: 3.3 g/dL | TBIL [7]: 0.2 mg/dL | TC [7]: 81.2 mg/dL | TG [7]: 148.2 mg/dL | TP [7]: 5.7 g/dL | gamma-GTP [7]: 1.4 IU/L | ALP [8]: 765.6 IU/L | ALT [8]: 40 IU/L | AST [8]: 66.2 IU/L | BUN [8]: 18.2 mg/dL | CRE [8]: 0.5 mg/dL | Ca [8]: 10.5 mg/dL | DBIL [8]: 0.1 mg/dL | GLC [8]: 213.2 mg/dL | K [8]: 3.8 meq/L | LDH [8]: 192.6 IU/L | Na [8]: 140.4 meq/L | PL [8]: 160.8 mg/dL | RALB [8]: 3.5 g/dL | TBIL [8]: 0.2 mg/dL | TC [8]: 73.8 mg/dL | TG [8]: 164.6 mg/dL | TP [8]: 6.1 g/dL | gamma-GTP [8]: 1.4 IU/L
